Data as given in US11156599B2, “Assay for telomere length regulators” (The Johns Hopkins University, priority 2015, dated 2021).

Assays:
Assay type in all cases: cell-based, mouse
[1] = system: de novo telomere addition on chr4 in SL13 cells; assay: ADDIT assay (Addition of de novo initiated telomeres): modified STELA PCR and PacBio sequencing
From the text: To examine potential mammalian genes that regulate telomere length, an assay was developed that allows visualization of telomere addition in vivo, referred here as ADDIT (Addition of de novo initiated telomeres). In a chromosomally stable CASTEiJ mouse fibroblast cell line, chromosome 4 (chr4) was modified to generate an internal 480 bp telomere ‘seed’ sequence followed by a unique I-Sce1 endonuclease cut site (FIG. 1A). The length of seed sequence was based on an early study showing that 400 bp of telomere repeats can act as functional telomeres. Using Southern blot analysis, two independent HYG-positive clones were identified, clone 1L and 1M, with a single chr4 allele correctly modified (data not shown).
To better visualize the telomere addition on the I-Sce1 cut telomere seed, the single telomere length analysis (STELA) (Baird et al., 2004, Hum Mol Genet 13, 1515-1524), a PCR-based approach that can measure telomere lengths from individual chromosome ends was modified. The STELA assay employs annealing and ligation of a linker, ‘telorette’, with TTAGGG and a unique 20-nucleotide sequence to the G-rich 3′ telomere overhang followed by PCR of the telomere from a ‘teltail’ primer and primer in the HYG sequence on the engineered chromosome (FIG. 2). The PCR product lengths will be proportional to the telomere lengths at the cleaved chr4 allele. As a control, to amplify the un-extended cut chromosome in vitro, a different linker, ‘IScerette’ was designed, which has a 4-nt homology to the 4-nt 3′ overhang created by the I-Sce1 endonuclease at the cleavage site (FIG. 2). […] This in vitro IScerette PCR product serves as a marker for the base line length of the cut, unextended telomere seed sequence.
To further verify the longer STELA PCR products represent de novo telomere addition, the PCR products were sequenced with Pacific Biosciences (PACBIO®) next generation sequencing technology. The PACBIO® platform produces longer reads and is less GC bias compared to other next generation sequencing platforms. While errors were present in the sequence as expected, the telomere repeats were easily recognizable. All of the reads from the PACBIO® were filtered and only those that had unique HYG sequence followed by telomere sequence and the ‘teltail’ primer sequence were examined. This assures that only full length of STELA PCR products were analyzed. The reads were then aligned at the junction between the HYG sequence and the telomere repeats. Wild-type TTAGGG repeats were colored orange and variant telomere repeats were colored in darker orange (FIG. 3A). Some of these variants arose due to errors in sequencing. An error rate similar to the published error rate of PACBIO® sequencing, 10-15% was observed. The errors were uniformly distributed over the reference sequence, dominated by point insertions and deletions, as expected for PACBIO® sequencing. There were three regions of divergent sequence in the original construct that are evident as darker orange stripes in the aligned reads (see for reference, in vitro IScelrette). These are small variation in TTAGGG sequence in the original SL13 clone and serve as useful internal reference points.
The original STELA protocol used for human cells (Baird et al., 2004, Hum Mol Genet 13, 1515-1524) was modified to measure telomere lengths on the de novo end of chr4 in SL13 cells. Briefly, genomic DNA was extracted using Puregene Core Kit A ^TM (Qiagen). 4 μg of genomic DNA was digested with SphI (NEB) and later diluted to 10 ng/μl in water. For the in vitro IScerette sample, genomic DNA was digested with SphI and I-SceI (NEB) prior to ligation. The ligation was carried out at 35° C. for at least 12 hrs in a volume of 10 μl containing 10 ng of digested genomic DNA, 0.9 μM of telorette linkers (mixture of telorette 1 to 6) or IScerette linker and 0.5 U of T4 DNA ligase (NEB) in 1× T4 ligation buffer. […]

SL13 cells [2] = assay: Cell cycle profile by propidium iodide staining and flow cytometry; conditions: 200 ng/ml colcemid or 2.5 mM thymidine, 24 hrs
Description: SL13 cells were grown in DMEM (Gibco) supplemented with 1% Penicillin/Streptomycin/Glutamine and 10% Tet system approved FBS (Clontech, #631107). Final concentration of 2 μg/ml of doxycycline was added in the media to induce I-Sce1 expression. Typically cells were collected post 48 hours of doxcycline treatment. To arrest cells in different cell cycle phases, cells were treated with either final concentration of 200 ng/ml colcemid (Gibco KaryoMAX Colcemid Solution, #15212-012) or 2.5 mM Thymidine (Sigma, #T-1895).
Cell cycle phase was accessed by DNA content using propidium iodide (PI) staining and flow cytometry analysis. Briefly, cell pellets were washed with 1× PBS at 500× g for 5 minutes and resuspended in 500 μl of 1× PBS. 4.5 ml of ice cold 70% ethanol was added drop by drop, and incubated overnight at 4° C. Samples were washed with 5 ml 1× PBS and incubated with 500 μl of PI-Triton resuspension buffer at room temperature for ≥30 minutes protected from light. PI-Triton resuspension buffer was made of 0.1% Triton™ X-100, 200 μg/ml RNase A, 20 μg/ml PI (Invitrogen, #P3566) in 1× PBS. PI-stained samples were transferred to strainer tubes (BD Falcon) and run on FACSCalibur™ flow cytometry (BD Biosciences). Cell cycle profiles were analyzed utilizing the Dean-Jet-Fox™ model in FlowJo™ software (FlowJo™).

HA-tagged I-Sce1 = assay: Quantitative RT-PCR of HA-tagged I-Sce1 expression; conditions: 200 ng/ml colcemid or 2.5 mM thymidine, 48 hrs; normalized to HPRT
Description: To measure HA-tagged I-Sce1 expression levels, quantitative RT-PCR was performed as described in 2.4.5. Primers used are the following: HA-ISce1-FOR, 5′-[…]-3′ (SEQ ID NO: 143); ISce1-REV2, 5′-[…]-3′ (SEQ ID NO: 144); HPRT_F, 5′-[…]-3′ (SEQ ID NO: 145); HPRT_R, 5′-[…]-3′ (SEQ ID NO: 146).

SL13 cells [3] = assay: Southern blot of genomic DNA for de novo telomere addition smear in arrested cells; conditions: cells arrested in G1 phase versus control cells and G2/M cells
From the text: To examine the in vivo chr4 cleavage and de novo telomere addition, genomic DNA extracted from SL13 cells arrested at different cell phases and treated with doxycycline for various time points were digested with Ncol restriction enzyme (NEB) and further analyzed by Southern blot as described previously in Example 1 with a random primed α-32P-labeled HYG probe.

Row | SMILES | PacBio reads with de novo telomere addition in cells held in G2/M phase ([1]; 200 ng/ml colcemid, 48 hrs) | cell cycle phase of arrest (SL13 cells [2]) | I-Sce1 expression in cells arrested at different phases (HA-tagged I-Sce1) | elongation beyond the chr4 I-Sce1-induced cut base line ([1]; Southern blot analysis of STELA PCR products, 400 nM flavopiridol) | 'smear' representative of de novo telomere addition (SL13 cells [3])
1 | CN[C@H]1CCc2cc(OC)c(OC)c(OC)c2-c2ccc(OC)c(=O)cc21 [colcemid] | significant percentage of PacBio® reads with de novo telomere addition | arrested in G2/M phase | no significant difference |  | 
2 | CN1CC[C@H](c2c(O)cc(O)c3c(=O)cc(-c4ccccc4Cl)oc23)[C@H](O)C1 [flavopiridol] |  |  |  | minimal elongation | 
3 | Cc1cn([C@H]2C[C@H](O)[C@@H](CO)O2)c(=O)[nH]c1=O [thymidine] |  | G1/early S phase | no significant difference |  | even less ‘smear’
